According to patent US11529335B2, “Compositions and methods for treating cancer” (UNIVERSITY OF IOWA RESEARCH FOUNDATION, priority 2020, dated 2022):

Key:
[1] = system: A375 xenografts; assay: A375 xenografts in athymic nu/nu mice: tumor growth, response, survival, body weight; assay type: in vivo
Procedure: (§1) 2-Mercaptoethanol is a reducing agent that leads to reduction of disulphide bonds to produce thiols. […] The effect of eliminating GSH in vivo was tested by treating mice (Athymic nu/nu) bearing A375 xenografts with rodent diet (AIN-76A) containing PLX4720 ([…], 416 mg/kg of diet) alone and in combination with BSO (15 mM in drinking water). […] Tumor xenografts in mice treated with the AIN-76 diet mixed with PLX4720 were responsive initially, but approximately 80% of these tumors acquired resistance to BRAFi treatment alone within 140 days (i.e., 20% complete responses; FIG. 2). On the contrary, the combination of BSO with PLX4720 produced nearly 90% complete and durable tumor responses (FIG. 4). […] Tumor progression was defined as a 50% increase (approximately a two standard deviation increase) in tumor volume from study initiation.
Female athymic nu/nu mice (age six weeks) were purchased from Envigo (previously Harlan Laboratories) and housed in the Animal Care Facility at The University of Iowa (Iowa City, Iowa). All procedures were approved by The University of Iowa Institutional Animal Care and Use Committee. All mice were naïve to treatments at the time of xenograft. For each xenograft, 1-3×10^6 cells (451LuBR and A375) were implanted subcutaneously in a 1:1 suspension of Matrigel (Corning) and PBS (flank) using a 27-gauge needle. For all in vivo studies, the mice were randomly assigned to experimental groups post-implant. Animals developed tumors within 7-10 days post-implant. Initiation of treatments was standardized to the time that tumor volume ([(longest length)×(smallest length^2)]/2) reached 80-100 mm^3.
The dose and mode of delivery for PBA was determined by analyzing the pharmacokinetics C-14 labeled PBA in mice (FIG. 5). These drugs were administered alone and in combination depending on the experimental group. The mice were monitored for their state of health every day. Tumor volume and animal weights were measured twice per week. Mice were euthanized when the observed state of health reached the endpoint according to the approved IACUC protocol or when the tumor volume reached 1500 mm^3.
Statistics was conducted using the tumor sizes (mm^3) that were obtained periodically throughout the experiments, resulting in repeated measurements for each mouse. Linear mixed effects regression models were used to estimate and compare treatment group-specific tumor growth curves. Pairwise comparisons were performed to identify treatment group differences in the growth curves. The Kaplan-Meier method was used to estimate the survival curves, and group comparisons were made using the log rank test. Mice who developed ulcerations were censored at day of euthanasia. […]

[2] = system: GSH in A375 xenograft tumor samples; assay: GSH concentrations in tumor samples from treated mice; assay type: in vivo, mice (Athymic nu/nu); details: mice treated with BSO, 15 mM in drinking water
Procedure: as §1
Female athymic nu/nu mice (age six weeks) were purchased from Envigo (previously Harlan Laboratories) and housed in the Animal Care Facility at The University of Iowa (Iowa City, Iowa). All procedures were approved by The University of Iowa Institutional Animal Care and Use Committee. All mice were naïve to treatments at the time of xenograft. For each xenograft, 1-3×10^6 cells (451LuBR and A375) were implanted subcutaneously in a 1:1 suspension of Matrigel (Corning) and PBS (flank) using a 27-gauge needle. […]

Row | SMILES | tumor growth rate versus untreated controls ([1]; BSO alone, 15 mM in drinking water, A375 xenografts) | GSH concentrations in tumor samples vs controls [2] | complete (and durable) tumor responses ([1]; A375 xenografts, PLX4720 416 mg/kg of diet, alone or with BSO 15 mM in drinking water) [%] | time within which tumor xenografts acquire resistance ([1]; BRAFi treatment alone) [days] | tumors that acquired resistance to BRAFi treatment alone ([1]; within 140 days, PLX4720 416 mg/kg of AIN-76A diet)
1 | CCCCS(=N)(=O)CCC(N)C(=O)O (centres unmarked) [BSO, buthionine sulfoximine] | No significant difference | significantly lower | – | – | –
2 | CCCS(=O)(=O)Nc1ccc(F)c(C(=O)c2c[nH]c3ncc(Cl)cc23)c1F [PLX4720] | – | – | 20 | ≤ 140 | approximately 80%
